Experimental findings from ChEMBL document CHEMBL1201862, “PubChem BioAssay data set” (2004) are described below.

What all share (assay): growth of human tumour cells (NCI), 48 h
Assay [1] relates to RPMI-8226.
In assay [2] the test system is HCT-15.
The subject of assay [3] is 786-0.
For assay [4], the system named is SNB-78.
The subject of assay [5] is OVCAR-8.
The subject of assay [6] is RXF 393.
Assay [7] has as its system DMS-114.
The test system of assay [8] is SK-OV-3.
In assay [9] the test system is SK-MEL-2.
Assay [10] has as its system NCI-H226.
Assay [11] relates to M19-MEL.
The subject of assay [12] is HCT-116.
Assay [13] has as its system SW-620.
Assay [14] relates to IGROV-1.
In assay [15] the test system is HOP-62.
In assay [16] the test system is NCI-H23.
The subject of assay [17] is T47D.
The test system of assay [18] is NCI/ADR-RES.
For assay [19], the system named is EKVX.
The test system of assay [20] is PC-3.

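Method: 48-hour compound exposure of cells in 96-well plates, five concentrations, linear interpolation of endpoints. GI50: concentration for 50% inhibition of growth.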 Calls of active or inactive are those of the source. Rule as the data show it: active = GI50 up to about 1.1 µM and inactive = higher.

Regarding `O=C1OC(=O)c2c1nc1ccccc1c2-c1ccccc1`, the GI50 in [1] was > 100 µM (inactive); in assay [2], more than 100 µM; in assay [3] it was > 100 µM (inactive); in assay [4] it was > 100 µM (inactive); in assay [5] it was > 100 µM (inactive); in [6] it was > 100 µM (inactive). For the same compound, the GI50 in [7], in [8], in assay [9], in assay [10], in assay [11] and in assay [12] was > 100 µM (inactive) in each case. Also, the GI50 in assay [13], in assay [14] and in [15] was > 100 µM (inactive) in each case.
For `N#CC(NNC(=O)c1ccccc1O)c1c(O)ccc2ccccc12` (stereo not given), the GI50 in assay [1] is 3.48 µM (inactive); in [2], 2.89 µM; in [3] it was 4.56 µM (inactive); in [16] it was 4.65 µM (inactive); in [4], 19.8 µM (inactive); in assay [17] it was 2.96 µM (inactive). Also, the GI50 in assay [5] is 3.16 µM (inactive); in assay [6], 2.75 µM (inactive); in assay [7], 1.87 µM (inactive); in [18] it was 3.44 µM (inactive); in [8], 4.68 µM (inactive); in [9], 3.72 µM (inactive). Also, the GI50 in assay [10] was 3.71 µM (inactive); in assay [11], 1.78 µM (inactive); in assay [19] it was 5.66 µM (inactive); in assay [12], 2.84 µM (inactive); in [13], 4.3 µM (inactive); in [14] it was 4.4 µM (inactive). Moreover, the GI50 in assay [20] is 4.03 µM (inactive); in [15], 3.33 µM (inactive).
Consider `C/C(=N\NC(=S)N1CCN(c2ccccn2)CC1)c1nccs1`, for which the GI50 in assay [1] is 0.01 µM (active); in [2], 0.071 µM; in assay [3] it was 0.305 µM (active); in assay [16], 0.438 µM (active); in assay [4] it was 6.76 µM (inactive); in [17], 0.0391 µM (active). The GI50 in assay [5] was 0.258 µM (active); in assay [6], 3.72 µM (inactive); in [7], 0.01 µM (active); in assay [18], 0.0339 µM (active); in assay [8] it was 1.61 µM (inactive); in assay [9], 1.83 µM (inactive). Besides, the GI50 in [10] is 0.955 µM (active); in assay [11], 0.574 µM (active); in assay [19] it was 0.12 µM (active); in [12], < 0.0441 µM (active); in assay [13] it was 0.279 µM (active); in [14], 0.228 µM (active). The results for the GI50 in assay [20] and in assay [15] were 0.0548 µM (active) and 1.19 µM (inactive), respectively.
Regarding `CN(C)c1ncnc2c1Cc1ccccc1C(=O)N2C`, the GI50 in assay [1], in [3], in [16], in assay [4], in assay [5] and in assay [6] was > 100 µM (inactive) throughout. The GI50 in assay [7], in assay [8], in assay [9], in assay [10], in [11] and in assay [19] was > 100 µM (inactive) each time. Besides, the GI50 in [12], in [13], in assay [14] and in [15] was > 100 µM (inactive) in each case.
Turning to `COC1CCC2C(=O)CCCC2O1` (stereo not given), the GI50 in [1] was > 100 µM (inactive); in assay [2], more than 100 µM; in assay [3], > 100 µM (inactive); in assay [16], > 100 µM (inactive); in [4], > 100 µM (inactive); in [5], > 100 µM (inactive). For the same compound, the GI50 in [6], in assay [7], in [8], in [9], in assay [10] and in assay [11] was > 100 µM (inactive) in each case. For the same compound, the GI50 in assay [19], in assay [12], in assay [13], in [14] and in assay [15] was > 100 µM (inactive) each time.
Take `CCc1cccc(C)c1NC(=S)NC(=O)c1ccccc1C(=O)NC(=S)Nc1c(C)cccc1CC`: the GI50 in assay [1] was 60 µM (inactive); in assay [2], more than 100 µM; in assay [3], > 100 µM (inactive); in [16] it was 35.6 µM (inactive); in assay [4], > 100 µM (inactive); in assay [5], 95.1 µM (inactive). The GI50 in [6] was > 100 µM (inactive); in assay [7], 29.9 µM (inactive); in assay [8], > 100 µM (inactive); in [9], > 100 µM (inactive); in assay [10], 50.4 µM (inactive); in [11], 39.2 µM (inactive). Besides, the GI50 in [19] was 59.6 µM (inactive); in [12], 71.4 µM (inactive); in [13] it was 75.3 µM (inactive); in assay [14], 93.8 µM (inactive); in assay [15] it was > 100 µM (inactive).
Consider `COc1ccc(NCc2cc(OC)cc(OC)c2)cc1`, for which the GI50 was 17 µM (inactive) in [1]; 10.3 µM in assay [2]; 48.1 µM (inactive) in assay [3]; 26.3 µM (inactive) in assay [16]; 19.6 µM (inactive) in assay [4]; 49.1 µM (inactive) in assay [5]. Moreover, the GI50 was 13.7 µM (inactive) in assay [6]; 6.53 µM (inactive) in assay [7]; 30.1 µM (inactive) in assay [8]; 7 µM (inactive) in assay [9]; 38.3 µM (inactive) in [10]; 15.1 µM (inactive) in assay [11]. The GI50 was 78.5 µM (inactive) in assay [19]; 15.6 µM (inactive) in assay [12]; 8.32 µM (inactive) in assay [13]; 22.5 µM (inactive) in assay [14]; 8.53 µM (inactive) in assay [15].
As for `CC(C)c1cccc(C(C)C)c1NC(=O)C(=O)C(C(=O)c1ccc2ccccc2c1)C1OC(=O)c2ccccc21` (stereo not given), the GI50 in [1] was > 100 µM (inactive); in [2] it was more than 100 µM; in assay [3], > 100 µM (inactive); in assay [16], > 100 µM (inactive); in assay [4], > 100 µM (inactive); in assay [5], > 10 µM (inactive). The GI50 was 11 µM (inactive) in [6]; > 100 µM (inactive) in assay [7]; > 100 µM (inactive) in assay [8]; > 100 µM (inactive) in assay [9]; 19.7 µM (inactive) in [10]; 26.7 µM (inactive) in assay [11]. Further, the GI50 was 24.5 µM (inactive) in assay [19]; > 100 µM (inactive) in assay [12]; > 100 µM (inactive) in [13]; > 100 µM (inactive) in assay [14]; 82.2 µM (inactive) in assay [15].
For the compound `O=C1/C(=C/c2ccc(O)cc2)CCC1CNc1ccc(Cl)cc1` (stereo not given), the GI50 in assay [1] is 0.755 µM (active); in assay [2] it was 1.3 µM; in assay [3], 1.83 µM (inactive); in assay [16], 5.9 µM (inactive); in assay [4] it was 12.5 µM (inactive); in assay [5], 1.38 µM (inactive). For the same compound, the GI50 in assay [6] is 6.31 µM (inactive); in assay [7], 1.31 µM (inactive); in assay [18], 5.45 µM (inactive); in assay [8], 5.14 µM (inactive); in assay [9], 14.4 µM (inactive); in assay [10] it was 12.6 µM (inactive). Further, the GI50 in assay [11] was 1.79 µM (inactive); in assay [19], 6.61 µM (inactive); in assay [12] it was 1.38 µM (inactive); in [13], 1.37 µM (inactive); in assay [14] it was 3.21 µM (inactive); in [20] it was 1.42 µM (inactive). The GI50 in [15] was 7.43 µM (inactive).
As to `C=C1CC[C@@H]2C(C)(C)C(O)CCC2(C)C1COc1ccc2ccc(=O)oc2c1` (stereo not given in full), the GI50 was 12.4 µM (inactive) in assay [1]; 14.1 µM in assay [2]; 21.5 µM (inactive) in assay [3]; 18.6 µM (inactive) in assay [16]; 19.4 µM (inactive) in assay [4]; 17.2 µM (inactive) in [5]. The GI50 in assay [6] was 15.3 µM (inactive); in assay [7], 15 µM (inactive); in assay [8], 23.4 µM (inactive); in [9], 17.4 µM (inactive); in [10] it was 18.8 µM (inactive); in assay [11], 18.4 µM (inactive). Besides, the GI50 in [19] is 19.3 µM (inactive); in assay [12], 15.5 µM (inactive); in assay [13] it was 22.1 µM (inactive); in assay [14], 18.9 µM (inactive); in assay [15], 19.1 µM (inactive).
